In US12473276B2, “Compound having neuroprotective effect, preparation method therefor and use thereof” (Shanghai Zhimeng Biopharma, Inc., priority 2019, dated 2025):
“And” between values parts separate entries of the source, which are not always exact repeats. Equal entries are not always repeated.

Tested on: rat focal cerebral ischemia-reperfusion model (Middle cerebral artery occlusion, MCAO)
Experiment: Protective effect on focal cerebral ischemia reperfusion (MCAO) in rats: cerebral infarction area by TTC staining
Type: in vivo, Sprague Dawley (SD) rat
Conditions: for Cerebral infarction area in rats (%): 2.0 h ischemia then reperfusion, mean ± standard error; for Effect on reducing the cerebral infarct area in model rats compared with the model group (significance): P<0.05 significant; for Compared with the model group, the reduced proportion of cerebral infarction area in the compound group: versus model group of the same test
Procedure: Sprague Dawley (SD) rat, male, SPF grade, weight 250-280 g
• Compounds 04007, 04015, 04041, 04047, 04050 and 04089 • Commercially available edaravone injection, products of Nanjing Simcere dongyuan pharmaceutical Co., Ltd, specifications 10 mg/mL 1.3 Experimental Method 1.3.1 Preparation of Focal Cerebral Ischemia-Reperfusion Model
The rat focal cerebral ischemia-reperfusion model (Middle cerebral artery occlusion, MCAO) was prepared by internal carotid artery suture method. Rats were injected intraperitoneally with 7% chloral hydrate (6.0 mL/kg), and the depth of anesthesia was appropriate for severe stimulation of animals with slight reaction. The anesthetized rats were tightened with rubber bands on the limbs (the hind limbs were fixed above the knee joint, and the forelimbs were fixed above the wrist joint) and the head, and the animals were fixed on the operating table in the supine position, and the animal shaver was used from the head end to the chest to shave hair, and the skin was disinfected with alcohol. The neck was cut in the middle and the subcutaneous tissue was blunt separated. […] The arterial shell was opened, the right carotid bifurcation was exposed, and the right common carotid artery, external carotid artery, internal carotid artery were separated, the vagus nerve was gently peeled off, the external carotid artery was ligated and cut off. The end of the common carotid artery proximity to the heart was clamped, and an incision was made from the distal end of the ligature line of the external carotid artery, suture was inserted and entered into the internal carotid artery through the bifurcation of the common carotid artery, and then slowly inserted until there was slight resistance (about 20 mm from the bifurcation), all blood supply of the middle cerebral artery was blocked. The suture was slightly fixed with the silk under the incision of the external carotid artery, the clamping silk at the end of the common carotid artery proximity to the heart was loosen, the wound surface was covered with gauze soaked with disinfected normal saline, and the rats were kept warm by placing on the heat preservation mat. After right cerebral ischemia for 2.0 h, the suture was gently pulled out, blood supply was restored for reperfusion, the external carotid artery was ligated with the silk fixing the suture, the skin was sutured, and disinfected.
The experimental animals were divided into model group, edaravone group (6 mg/kg) and compound to be tested group (5 mg/kg ration of compound to be tested: 5% DMAC+5% Solutol HS 15+90% Saline were used to prepare a solution with a concentration of 1 mg/mL.
After the ischemia model was prepared, the animals were assigned to each group in a single blind with equal probability. The animals were administered intravenously once immediately after reperfusion, and the animals in the model group were given the same volume of normal saline. The animals were sacrificed 24 hours after ischemia, the brain was taken, stained and photographed to determine the area of cerebral infarction.
The degree of cerebral infarction was determined by TTC, staining. After the evaluation of the symptoms of neurological defects in animals was completed, the animals were killed with CO2, the brain was taken by decapitation, the olfactory bulb, cerebellum and low brainstem were removed, blood stains on the surface of the brain were washed with normal saline, residual water stains on the surface were sucked out, and placed at −20° C. for 20 min. Immediately after taking out, the coronal section was made vertically downward at the intersection plane of the line of sight, and cut a slice every 2 mm backwards, the brain slices were incubated in 1% TTC dye solution (37° C. for 20 min). The normal brain tissue was dyed crimson, while the ischemic brain tissue was pale. […]

[1] = compound 5 mg/kg intravenously once immediately after reperfusion, measured 24 hours after ischemia
[2] = compound 5 mg/kg versus edaravone 6 mg/kg

SMILES	Cerebral infarction area in rats (%) [1]	Effect on reducing the cerebral infarct area in model rats compared with the model group (significance) (compound 5 mg/kg i.v.)	Compared with the model group, the reduced proportion of cerebral infarction area in the compound group (compound 5 mg/kg i.v.)	Cerebral infarction area of rats in edaravone group in the same test(%) (edaravone 6 mg/kg intravenously once immediately after reperfusion, measured 24 hours after ischemia, one value per test run)	Cerebral infarction area in rats (%) (compound 0.5 mg/kg intravenously once immediately after reperfusion, measured 24 hours after ischemia)	Effect on reducing the cerebral infarct area in model rats compared with the model group (significance) (compound 0.5 mg/kg i.v.)	Compared with the model group, the reduced proportion of cerebral infarction area in the compound group (compound 0.5 mg/kg i.v.)	Efficacy compared with the positive control drug edaravone group (compound 0.5 mg/kg versus edaravone 6 mg/kg)	Efficacy compared with the positive control drug edaravone group [2]
CC(C)OC(=O)c1ccc(N2COc3c(Cl)cc(Cl)cc3C2)cn1 [Compound 04047]	35.47 ± 5.34%	no significant effect on reducing the cerebral infarct area	15%						
CC1=NN(c2ccccc2)C(=O)C1 [edaravone, reference compound]				32.08% and 27.44% and 28.47% and 32.45%					
CCOCCOC(=O)c1ccc(N2Cc3cc(Cl)cc(Cl)c3OC2=S)cn1 [Compound 04089]					27.80 ± 2.22%	significantly reduce the cerebral infarct area	34%	equivalent or better efficacy	
CCOC(=O)c1ccc(Cn2c(=S)oc3c(Cl)cc(Cl)cc32)cc1O [Compound 04041]	30.37 ± 4.36%	significantly reduce the cerebral infarct area	37%						equivalent or better efficacy
C#CCCOC(=O)c1ccc(N2Cc3cc(Cl)cc(Cl)c3OC2=S)cn1 [Compound 04050]	30.97 ± 4.33%	significantly reduce the cerebral infarct area	26%						equivalent or better efficacy
CN1CC(OC(=O)c2ccc(N3Cc4cc(Cl)cc(Cl)c4OC3=S)cn2)C1 [Compound 04007]	35.41 ± 3.71%	significantly reduce the cerebral infarct area	26%						equivalent or better efficacy
